# Tests used:
# Pyricularia oryzae = assay: Antimicrobial activity against Pyricularia oryzae P-2b; format: functional
# C2C12 = assay: Increase in glucose consumption in mouse C2C12 cells assessed as improved glucose transformation; format: functional, cell-based
# [1] = system: Human immunodeficiency virus 1; assay: Antiviral activity against HIV1 3B infected in human MT2 cells; format: functional, organism-based; settings: Human immunodeficiency virus 1, 3B
SMILES,MIC (Pyricularia oryzae),IC50 (C2C12),IC50 [1]
C=C1CC[C@@H](O)[C@]2(C)CC[C@@](O)(C(C)C)C[C@@H]12,12 µg/mL,,
C=C1CC[C@@H](O)[C@]2(C)CC[C@@H](C(C)C)C[C@@]12O,20 µg/mL,10.7 µg/mL,
C=C1CC[C@@H](O)[C@]2(C)CC[C@](O)(C(C)C)C[C@@H]12,16 µg/mL,,
C=C1CC[C@@H](O)[C@]2(C)CC[C@H](C(C)C)[C@@H](O)[C@H]12,,,10 µg/mL

# Source: ChEMBL document CHEMBL1148963, “Four new eudesmanes from Caragana intermedia and their biological activities” (J Nat Prod, 2004)
